Results on 32 molecules are retold here after US7858640B2, “Quinolines and their therapeutic use” (Pulmagen Therapeutics (Asthma) Limited, priority 2005, dated 2010).

pKi: −log10 of the molar value. Where only a bound is given, the exact number is not on record here.

For this experiment, the target named is T1, CRTH2 receptor (Homo sapiens, UniProt Q9Y5Y4).
T1 sequence (Q9Y5Y4 1-395): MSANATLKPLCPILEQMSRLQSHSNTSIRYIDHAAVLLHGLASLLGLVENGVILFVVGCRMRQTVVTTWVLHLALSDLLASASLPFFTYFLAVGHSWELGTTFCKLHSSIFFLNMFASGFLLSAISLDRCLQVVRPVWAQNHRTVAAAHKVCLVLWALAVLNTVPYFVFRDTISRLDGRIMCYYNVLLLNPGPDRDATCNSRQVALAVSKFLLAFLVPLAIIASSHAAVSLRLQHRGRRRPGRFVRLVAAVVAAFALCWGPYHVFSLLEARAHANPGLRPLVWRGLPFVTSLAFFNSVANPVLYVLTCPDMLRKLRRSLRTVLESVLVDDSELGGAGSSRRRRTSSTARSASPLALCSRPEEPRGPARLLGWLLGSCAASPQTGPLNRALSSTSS
Description: Radioligand binding assay ([3H]-PGD2 displacement, SPA). Also noted: expressed in transfected cells; host or cells: HEK cell membranes. The conditions noted are these: HEK cell membranes expressing the CRTH2 receptor, 1 nM [3H]-PGD2; Ki from IC50 by Cheng-Prusoff. How it is done:
Radioligand Binding Assay
The receptor binding assay is performed in a final volume of 200 μL binding buffer [10 mM BES (pH 7.4), 1 mM EDTA, 10 mM manganese chloride, 0.01% BSA] and 1 nM [^3H]-PGD2 (Amersham Biosciences UK Ltd). Ligands are added in assay buffer containing a constant amount of DMSO (1% by volume). Total binding is determined using 1% by volume of DMSO in assay buffer and non-specific binding is determined using 10 μM of unlabeled PGD2 (Sigma). Human embryonic kidney (HEK) cell membranes (3.5 μg) expressing the CRTH2 receptor are incubated with 1.5 mg wheatgerm agglutinin SPA beads and 1 nM [^3H]-PGD2 (Amersham Biosciences UK Ltd) and the mixture incubated for 3 hours at room temperature. Bound [^3H]-PGD2 is detected using a Microbeta TRILUX liquid scintillation counter (Perkin Elmer). Compound IC50 value is determined using a 6-point dose response curve in duplicate with a semi-log compound dilution series. IC50 calculations are performed using Excel and XLfit (Microsoft), and this value is used to determine a Ki value for the test compound using the Cheng-Prusoff equation.
As to `CCc1nc2c(Cl)ccc(OCC(=O)O)c2c(OC(F)F)c1Cc1ccc(S(C)(=O)=O)cc1` [Example 29, [8-chloro-4-difluoromethoxy-2-ethyl-3-(4-methanesulfonylbenzyl)-quinolin-5-yloxy]acetic acid], the pKi (in general, the Ki on a negative log10 scale, so that one unit is a factor of ten) was more than 7.00.

Turning to `CCOc1nc2cc(C)cc(CC(=O)O)c2c(C)c1Cc1ccc(Cl)cc1` [Example 3, [3-(4-chlorobenzyl)-2-ethoxy-4,7-dimethylquinolin-5-yl]acetic Acid], the pKi is more than 7.00.

`Cc1nc2c(Cl)ccc(OCC(=O)O)c2c(OC(F)F)c1Cc1ccc(S(C)(=O)=O)cc1Cl` [Example 35, [8-chloro-3-(2-chloro-4-methanesulfonylbenzyl)-4-difluoro-methoxy-2-methylquinolin-5-yloxy]acetic Acid] showed a pKi of more than 7.00.

In the case of `Cc1nc2c(Cl)ccc(OC(C)C(=O)O)c2c(C)c1Cc1ccc(Cl)cc1` (centres unmarked) [Example 33, 2-[8-chloro-3-(4-chlorobenzyl)-2,4-dimethylquinolin-5-yloxy]propionic Acid], the pKi is more than 7.00.

Take `Cc1nc2c(F)ccc(OCC(=O)O)c2c(OC(F)F)c1Cc1ccc(Cl)cc1` [Example 27, [3-(4-chlorobenzyl)-4-difluoromethoxy-8-fluoro-2-methylquinolin-5-yloxy]acetic acid]: the pKi is more than 7.00.

In turn, `Cc1nc2cc(Cl)cc(CC(=O)O)c2c(C)c1Cc1ccc(Cl)cc1` [Example 11, [7-chloro-3-(4-chlorobenzyl)-2,4-dimethylquinolin-5-yl]acetic acid] gave a pKi of more than 7.00.

As for `CCc1nc2c(F)ccc(OCC(=O)O)c2c(OC(F)F)c1Cc1ccc(Cl)cc1Cl` [Example 54, [3-(2,4-dichlorobenzyl)-4-difluoromethoxy-2-ethyl-8-fluoroquinolin-5-yloxy]acetic acid], the pKi was more than 7.00.

`Cc1cc(OCC(=O)O)c2c(C)c(Cc3ccc(Cl)cc3)c(C)nc2c1` [Example 4, [3-(4-chlorobenzyl)-2,4,7-trimethylquinolin-5-yloxy]acetic Acid] had a pKi of more than 6.00.

`Cc1nc2c(Cl)ccc(OCC(=O)NS(C)(=O)=O)c2c(C)c1Cc1ccc(Cl)cc1` [Example 13, N-{2-[8-chloro-3-(4-chlorobenzyl)-2,4-dimethylquinolin-5-yloxy]-acetyl}methanesulfonamide] showed a pKi of more than 6.00.

On to `Cc1nc2c(Cl)ccc(OCC(=O)O)c2c(C)c1S(=O)(=O)c1ccc(Cl)cc1` [Example 21, [8-chloro-3-(4-chlorobenzenesulfonyl)-2,4-dimethylquinolin-5-yloxy]acetic Acid], for which the pKi was more than 7.00.

`Cc1nc2c(Cl)ccc(OCC(=O)O)c2c(OC(F)F)c1Cc1ccc(S(C)(=O)=O)cc1` [Example 26, [8-chloro-4-difluoromethoxy-3-(4-methanesulfonylbenzyl)-2-methylquinolin-5-yloxy]acetic acid] gave a pKi of more than 7.00.

In turn, `Cc1c(Cc2ccc(F)cc2Cl)c(OC(F)F)nc2c(F)ccc(OCC(=O)O)c12` [Example 59, [3-(2-chloro-4-fluorobenzyl)-2-difluoromethoxy-8-fluoro-4-methylquinolin-5-yloxy]acetic Acid] gave a pKi of more than 7.00.

On to `Cc1c(Cc2ccc(S(C)(=O)=O)cc2)c(C#N)nc2c(Cl)ccc(OCC(=O)O)c12` [Example 44, [8-chloro-2-cyano-3-(4-methanesulfonylbenzyl)-4-methylquinolin-5-yloxy]acetic Acid], for which the pKi was more than 7.00.

`Cc1nc2c(Cl)ccc(OCC(=O)O)c2c(C)c1Oc1ccc(Cl)cc1` [Example 7, [8-chloro-3-(4-chlorophenoxy)-2,4-dimethylquinolin-5-yloxy]acetic Acid]: the pKi is more than 7.00.

Molecule `Cc1nc2c(Cl)ccc(OCC(=O)NS(=O)(=O)c3ccccc3)c2c(C)c1Cc1ccc(Cl)cc1` [Example 14, N-{2-[8-chloro-3-(4-chlorobenzyl)-2,4-dimethylquinolin-5-yloxy]-acetyl}benzenesulfonamide] gave a pKi of more than 5.00.

With `Cc1nc2c(Cl)ccc(OCC(=O)O)c2c(C)c1Sc1ccc(Cl)cc1` [Example 8, [8-chloro-3-(4-chlorophenylsulfanyl)-2,4-dimethylquinolin-5-yloxy]acetic Acid], the pKi is more than 7.00.

Molecule `Cc1c(Cc2ccc(S(C)(=O)=O)cc2)c(OC(F)F)nc2c(Cl)ccc(OCC(=O)O)c12` [Example 34, [8-chloro-2-difluoromethoxy-3-(4-methanesulfonylbenzyl)-4-methylquinolin-5-yloxy]acetic Acid] gave a negative-log Ki (pKi) of more than 7.00.

Molecule `CCS(=O)(=O)c1ccc(Cc2c(OC(F)F)nc3c(F)ccc(OCC(=O)O)c3c2C)cc1` [Example 61, [2-difluoromethoxy-3-(4-ethanesulfonylbenzyl)-8-fluoro-4-methylquinolin-5-yloxy]acetic Acid] gave a negative-log Ki (pKi) of more than 7.00.

The molecule `CCc1nc2c(F)ccc(OCC(=O)O)c2c(OC(F)F)c1Cc1ccc(C(=O)N2CCCC2)cc1Cl` [Example 72, {3-[2-chloro-4-(pyrrolidine-1-carbonyl)benzyl]-4-difluoromethoxy-2-ethyl-8-fluoroquinolin-5-yloxy}acetic Acid] gave a pKi of more than 7.00.

Molecule `CCc1c(Cc2ccc(Cl)cc2)c(C)nc2c(Cl)ccc(OCC(=O)O)c12` [Example 16, [8-chloro-3-(4-chlorobenzyl)-4-ethyl-2-methylquinolin-5-yloxy]acetic acid] showed a negative logarithm of the Ki (pKi) of more than 7.00.

`CCc1nc2c(F)ccc(OCC(=O)O)c2c(OC(F)F)c1Cc1ccc(C(=O)N2CCCC2)cc1` [Example 65, {4-difluoromethoxy-2-ethyl-8-fluoro-3-[4-(pyrrolidine-1-carbonyl)benzyl]quinolin-5-yloxy}acetic Acid] gave a negative logarithm of the Ki (pKi) of more than 7.00.

On to `Cc1c(Cc2ccc(Cl)cc2)c(OC(F)F)nc2c(Cl)ccc(OC(C)C(=O)O)c12` (centres unmarked) [Example 69, 2-[8-chloro-3-(4-chlorobenzyl)-2-difluoromethoxy-4-methylquinolin-5-yloxy]propionic Acid], for which the pKi was more than 7.00.

`Cc1c(Cc2ccc(Cl)cc2)c(OC(F)F)nc2c(Cl)ccc(OCC(=O)O)c12` [Example 57, [8-chloro-3-(4-chlorobenzyl)-2-difluoromethoxy-4-methylquinolin-5-yloxy]acetic Acid] had a pKi of more than 7.00.

Regarding `CCc1nc2c(F)ccc(OCC(=O)O)c2c(OC(F)F)c1Cc1ccc(Cl)cc1F` [Example 63, [3-(4-chloro-2-fluorobenzyl)-4-difluoromethoxy-2-ethyl-8-fluoroquinolin-5-yloxy]acetic acid], the pKi was more than 7.00.

The molecule `Cc1nc2c(Cl)ccc(OCC(=O)O)c2c(OC(F)F)c1Cc1ccc(Cl)cc1` [Example 9, [8-chloro-3-(4-chlorobenzyl)-4-difluoromethoxy-2-methylquinolin-5-yloxy]acetic Acid] gave a negative logarithm of the Ki (pKi) of more than 7.00.

As for `CCc1nc2c(F)ccc(O[C@@H](C)C(=O)O)c2c(OC(F)F)c1Cc1ccc(Cl)cc1Cl` [Example 74, (S)-2-[3-(2,4-dichlorobenzyl)-4-difluoromethoxy-2-ethyl-8-fluoroquinolin-5-yloxy]propionic Acid], the pKi was more than 7.00.

Regarding `Cc1c(Cc2ccc(F)cc2)c(OC(C)C)nc2c(Cl)ccc(OCC(=O)O)c12` [Example 31, [8-chloro-3-(4-fluorobenzyl)-2-isopropoxy-4-methylquinolin-5-yloxy]acetic Acid], the pKi was more than 6.00.

`Cc1nc2c(Cl)ccc(OCC(=O)O)c2c(OC(C)C)c1Cc1ccc(F)cc1` [Example 32, [8-chloro-3-(4-fluorobenzyl)-4-isopropoxy-2-methylquinolin-5-yloxy]acetic Acid]: the pKi was more than 6.00.

Consider `CCc1nc2c(F)ccc(OCC(=O)O)c2c(OC(F)F)c1Cc1ccc(S(C)(=O)=O)cc1Cl` [Example 47, [3-(2-chloro-4-methanesulfonylbenzyl)-4-difluoromethoxy-2-ethyl-8-fluoroquinolin-5-yloxy]acetic acid], for which the pKi was more than 7.00.

For the molecule `Cc1c(Cc2ccc(F)cc2F)c(OC(F)F)nc2c(F)ccc(OCC(=O)O)c12` [Example 55, [3-(2,4-difluorobenzyl)-2-difluoromethoxy-8-fluoro-4-methylquinolin-5-yloxy]acetic acid], the pKi was more than 7.00.

Turning to `Cc1nc2c(Cl)ccc(OCc3nnn[nH]3)c2c(C)c1Cc1ccc(Cl)cc1` [Example 23, 8-chloro-3-(4-chlorobenzyl)-2,4-dimethyl-5-(1H-tetrazol-5-ylmethoxy)quinoline], the pKi is more than 5.00.

In the case of `Cc1c(Cc2ccc(Cl)cc2Cl)c(OC(F)F)nc2c(F)ccc(O[C@H](C)C(=O)O)c12` [Example 70, (R)-2-[3-(2,4-dichlorobenzyl)-2-difluoromethoxy-8-fluoro-4-methylquinolin-5-yloxy]propionic Acid], the pKi was more than 7.00.
